In ChEMBL document CHEMBL1139122, “Structure-activity relationship (SAR) studies of quinoxalines as novel HCV NS5B RNA-dependent RNA polymerase inhibitors” (Bioorg Med Chem Lett, 2007):

Experiment: Inhibition of HCV NS5B RdRp
Set-up: species or system Hepacivirus hominis

Structure (SMILES)	IC50 [µM]
O=C(N[C@@H](Cc1c[nH]c2ccc(O)cc12)C(=O)O)c1ccc2nc(-c3ccccc3)c(-c3ccccc3)nc2c1	11
Cc1ccc(-c2nc3ccc(C(=O)O)cc3nc2-c2ccc(C)cc2)cc1	40
COc1cccc(-c2nc3ccc(C(=O)N[C@@H](Cc4c[nH]c5ccc(O)cc45)C(=O)O)cc3nc2-c2cccc(OC)c2)c1	15
COC(=O)[C@H](Cc1c[nH]c2ccc(O)cc12)NC(=O)c1ccc2nc(-c3ccc(C)cc3)c(-c3ccc(C)cc3)nc2c1	49
Cc1ccc(-c2nc3ccc(C(=O)N[C@@H](Cc4c[nH]c5ccc(O)cc45)C(=O)O)cc3nc2-c2ccc(C)cc2)cc1	6.1
CCOC(=O)/C=C/c1ccc(NC(=O)C2(NC(=O)c3ccc4nc(-c5ccc(F)cc5)c(-c5ccc(F)cc5)nc4c3)CCC2)cc1	37
COC(=O)[C@H](Cc1c[nH]c2ccc(O)cc12)NC(=O)c1ccc2nc(-c3ccccc3)c(-c3ccccc3)nc2c1	72
O=C(N[C@@H](Cc1c[nH]c2ccccc12)C(=O)O)c1ccc2nc(-c3ccccn3)c(-c3ccccn3)nc2c1	> 100
COC(=O)[C@H](Cc1c[nH]c2ccccc12)NC(=O)c1ccc2nc(-c3ccccn3)c(-c3ccccn3)nc2c1	> 100
COC(=O)[C@H](Cc1c[nH]c2ccccc12)NC(=O)c1ccc2nc(-c3ccc(F)cc3)c(-c3ccc(F)cc3)nc2c1	> 100
COC(=O)COc1ccc2[nH]cc(C[C@H](NC(=O)c3ccc4nc(-c5ccc(F)cc5)c(-c5ccc(F)cc5)nc4c3)C(=O)OC)c2c1	100
O=C(N[C@@H](Cc1c[nH]c2ccccc12)C(=O)O)c1ccc2nc(-c3ccco3)c(-c3ccco3)nc2c1	33
COc1cccc(-c2nc3ccc(C(=O)O)cc3nc2-c2cccc(OC)c2)c1	> 100
COC(=O)[C@H](Cc1c[nH]c2ccc(O)cc12)NC(=O)c1ccc2nc(-c3ccco3)c(-c3ccco3)nc2c1	26
O=C(O)c1ccc2nc(-c3ccccn3)c(-c3ccccn3)nc2c1	> 100
O=C(O)c1ccc2nc(-c3ccco3)c(-c3ccco3)nc2c1	17

Structure (SMILES)	IC50 [µM]
COC(=O)[C@H](Cc1c[nH]c2ccccc12)NC(=O)c1ccc2nc(-c3ccccc3)c(-c3ccccc3)nc2c1	> 100
O=C(O)c1ccc2nc(-c3ccccc3)c(-c3ccccc3)nc2c1	79
COc1cccc(-c2nc3ccc(C(=O)N[C@@H](Cc4c[nH]c5ccccc45)C(=O)O)cc3nc2-c2cccc(OC)c2)c1	> 100
COC(=O)[C@H](Cc1c[nH]c2ccccc12)NC(=O)c1ccc2nc(-c3ccc(C)cc3)c(-c3ccc(C)cc3)nc2c1	> 100
COC(=O)[C@H](Cc1c[nH]c2ccccc12)NC(=O)c1ccc2nc(-c3cccc(OC)c3)c(-c3cccc(OC)c3)nc2c1	> 100
COC(=O)[C@H](Cc1c[nH]c2ccc(O)cc12)NC(=O)c1ccc2nc(-c3ccc(F)cc3)c(-c3ccc(F)cc3)nc2c1	5.5
CCOC(=O)/C=C/c1ccc(NC(=O)c2ccc3nc(-c4ccc(F)cc4)c(-c4ccc(F)cc4)nc3c2)cc1	> 100
CCOC(=O)/C=C/c1ccc(NC(=O)C2(NC(=O)c3ccc4nc(-c5ccc(F)cc5)c(-c5ccc(F)cc5)nc4c3)CCCC2)cc1	> 100
COC(=O)/C=C/COc1ccc2[nH]cc(C[C@H](NC(=O)c3ccc4nc(-c5ccc(F)cc5)c(-c5ccc(F)cc5)nc4c3)C(=O)OC)c2c1	53
COC(=O)[C@H](Cc1c[nH]c2ccccc12)NC(=O)c1ccc2nc(-c3ccco3)c(-c3ccco3)nc2c1	> 100
O=C(N[C@@H](Cc1c[nH]c2ccccc12)C(=O)O)c1ccc2nc(-c3ccccc3)c(-c3ccccc3)nc2c1	15
O=C(N[C@@H](Cc1c[nH]c2ccc(O)cc12)C(=O)O)c1ccc2nc(-c3ccco3)c(-c3ccco3)nc2c1	16
COC(=O)[C@H](Cc1c[nH]c2ccc(O)cc12)NC(=O)c1ccc2nc(-c3cccc(OC)c3)c(-c3cccc(OC)c3)nc2c1	> 100
COC(=O)[C@H](Cc1c[nH]c2ccc(OCC(N)=O)cc12)NC(=O)c1ccc2nc(-c3ccc(F)cc3)c(-c3ccc(F)cc3)nc2c1	8.6
O=C(O)/C=C/c1ccc(NC(=O)c2ccc3nc(-c4ccc(F)cc4)c(-c4ccc(F)cc4)nc3c2)cc1	17

More lines, now with the values ahead:

IC50 [µM]	Structure (SMILES)
1.8	O=C(Nc1ccc(-c2ccc(C(=O)O)o2)cc1)c1ccc2nc(C3CCCCC3)c(-c3ccccc3)nc2c1
3.7	O=C(N[C@@H](Cc1c[nH]c2ccccc12)C(=O)O)c1ccc2nc(C3CCCCC3)c(-c3ccccc3)nc2c1
1.3	CCOC(=O)/C=C/c1ccc(NC(=O)C2(NC(=O)c3ccc4nc(-c5ccc(F)cc5)c(C5CCCCC5)nc4c3)CCC2)cc1
5.5	O=C(O)c1ccc2nc(-c3ccc(F)cc3)c(-c3ccc(F)cc3)nc2c1
4.6	O=C(O)/C=C/c1ccc(NC(=O)c2ccc3nc(-c4ccc(F)cc4)c(C4CCCCC4)nc3c2)cc1
1.9	O=C(N[C@@H](Cc1c[nH]c2ccccc12)C(=O)O)c1ccc2nc(-c3ccc(F)cc3)c(-c3ccc(F)cc3)nc2c1
5	O=C(N[C@@H](Cc1c[nH]c2ccc(O)cc12)C(=O)O)c1ccc2nc(C3CCCCC3)c(-c3ccccc3)nc2c1
4.1	O=C(O)/C=C/c1ccc(NC(=O)c2ccc3nc(C4CCCCC4)c(-c4ccc(F)cc4)nc3c2)cc1
3.4	O=C(N[C@@H](Cc1c[nH]c2ccccc12)C(=O)O)c1ccc2nc(C3CCCCC3)c(-c3ccc(F)cc3)nc2c1
1.6	O=C(N[C@@H](Cc1c[nH]c2ccccc12)C(=O)O)c1ccc2nc(-c3ccc(F)cc3)c(C3CCCCC3)nc2c1
2.2	O=C(O)/C=C/COc1ccc2[nH]cc(C[C@H](NC(=O)c3ccc4nc(-c5ccc(F)cc5)c(-c5ccc(F)cc5)nc4c3)C(=O)O)c2c1
1.3	O=C(N[C@@H](Cc1c[nH]c2ccc(O)cc12)C(=O)O)c1ccc2nc(-c3ccc(F)cc3)c(-c3ccc(F)cc3)nc2c1
4.1	O=C(N[C@@H](Cc1c[nH]c2ccc(O)cc12)C(=O)O)c1ccc2nc(C3CCCCC3)c(-c3ccc(F)cc3)nc2c1
5.1	CCOC(=O)/C=C/c1ccc(NC(=O)C2(NC(=O)c3ccc4nc(C5CCCCC5)c(-c5ccc(F)cc5)nc4c3)CCC2)cc1
1.6	O=C(Nc1ccc(-c2ccc(C(=O)O)o2)cc1)c1ccc2nc(-c3ccccc3)c(C3CCCCC3)nc2c1
3.2	NC(=O)COc1ccc2[nH]cc(C[C@H](NC(=O)c3ccc4nc(-c5ccc(F)cc5)c(-c5ccc(F)cc5)nc4c3)C(=O)O)c2c1
1.3	O=C(O)/C=C/c1ccc(NC(=O)c2ccc3nc(C4CCCCC4)c(-c4ccccc4)nc3c2)cc1
1.2	O=C(O)/C=C/c1ccc(NC(=O)C2(NC(=O)c3ccc4nc(-c5ccc(F)cc5)c(-c5ccc(F)cc5)nc4c3)CCCC2)cc1
0.6	O=C(N[C@@H](Cc1c[nH]c2ccc(O)cc12)C(=O)O)c1ccc2nc(-c3ccccc3)c(C3CCCCC3)nc2c1
1.8	O=C(N[C@@H](Cc1c[nH]c2ccccc12)C(=O)O)c1ccc2nc(-c3ccccc3)c(C3CCCCC3)nc2c1
0.69	O=C(O)/C=C/c1ccc(NC(=O)C2(NC(=O)c3ccc4nc(-c5ccc(F)cc5)c(-c5ccc(F)cc5)nc4c3)CCC2)cc1
1.7	O=C(O)COc1ccc2[nH]cc(C[C@H](NC(=O)c3ccc4nc(-c5ccc(F)cc5)c(-c5ccc(F)cc5)nc4c3)C(=O)O)c2c1
4.6	O=C(N[C@@H](Cc1c[nH]c2ccc(O)cc12)C(=O)O)c1ccc2nc(-c3ccc(F)cc3)c(C3CCCCC3)nc2c1
